In BindingDB's records for doi:10.1111/cbdd.12375 (Ferdowsi University of Mashhad, 2015):

Biological target: T1, Seed linoleate 13S-lipoxygenase-1 (Glycine max, UniProt P08170)
T1 sequence (P08170 whole entry): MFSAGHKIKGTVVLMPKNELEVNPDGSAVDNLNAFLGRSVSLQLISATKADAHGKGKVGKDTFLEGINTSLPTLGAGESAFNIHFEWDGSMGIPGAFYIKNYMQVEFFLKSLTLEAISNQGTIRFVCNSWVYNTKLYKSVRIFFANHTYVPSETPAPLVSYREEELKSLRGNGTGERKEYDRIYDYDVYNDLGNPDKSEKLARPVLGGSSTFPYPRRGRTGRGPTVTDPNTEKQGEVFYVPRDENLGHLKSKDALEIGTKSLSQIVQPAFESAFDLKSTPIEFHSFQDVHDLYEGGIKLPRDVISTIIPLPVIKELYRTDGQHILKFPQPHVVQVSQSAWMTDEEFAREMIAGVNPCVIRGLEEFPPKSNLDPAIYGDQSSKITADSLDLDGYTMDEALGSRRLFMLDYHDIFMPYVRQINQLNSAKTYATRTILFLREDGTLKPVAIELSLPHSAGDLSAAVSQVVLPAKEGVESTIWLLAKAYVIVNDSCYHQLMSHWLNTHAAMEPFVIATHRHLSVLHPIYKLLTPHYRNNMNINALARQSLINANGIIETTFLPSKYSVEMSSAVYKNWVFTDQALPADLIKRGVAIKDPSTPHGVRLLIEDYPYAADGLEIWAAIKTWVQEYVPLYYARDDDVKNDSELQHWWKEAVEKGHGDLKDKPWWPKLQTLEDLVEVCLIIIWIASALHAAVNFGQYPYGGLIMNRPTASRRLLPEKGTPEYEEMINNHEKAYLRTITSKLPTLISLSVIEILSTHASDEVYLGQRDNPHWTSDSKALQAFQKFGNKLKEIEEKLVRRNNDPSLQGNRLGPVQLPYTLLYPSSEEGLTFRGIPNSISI
Assay: 15LO Inhibition Assay
Settings: pH 7; 25 °C
Description: Linoleic acid and two assay solutions (A and B) were prepared in advance. Solution A was 50 mM 3-(dimethylamino)benzoic acid (DMAB) in a 100 mM phosphate buffer (pH 7.0). Solution B was a mixture of 10 mM 3-methyl-2-benzothiazolinone (MBTH) 3 mL, hemoglobin (5 mg/mL, 3 mL) in 50 mM phosphate buffer at pH 5.0 (25 mL). A linoleic acid solution was prepared by mixing 5 mg of linoleic acid with 50 mg Tween-20 in 3 mL water and then diluting with KOH 100 mM to a final volume of 5 mL. In the standard assay, the sample in ethanol ([…]), soybean 15-lipo-oxygenase (SLO) (4000 units/mL in 50 mM phosphate buffer pH 7.0; […]) and phosphate buffer pH 7.0 (50 mM; […]) were mixed in a test-tube, and preincubation was carried out for 5 min at room temperature. A control test was done with the same volume of ethanol. After the preincubation, linoleic acid solution […] was added to start the peroxidation reaction, and 7 min later,solution A […] and then solution B […] was added to

| IC50 [µM] | Compound |
| --- | --- |
| > 500 | Cc1nc(N2CCC(C)CC2)nc(Sc2nnc(Sc3nc(N4CCC(C)CC4)nc(C)c3Br)n2N)c1Br [3,5-bis((5-bromo-6-methyl-2-(4-methylpiperidin-1-yl)pyrimidin-4-yl)thio)-4H-1,2,4-triazol-4-amine (4c)] |
| 12 | CCN1CCN(c2nc(C)c(Br)c(Sc3nnc(Sc4nc(N5CCN(CC)CC5)nc(C)c4Br)n3N)n2)CC1 [3,5-bis((5-bromo-6-methyl-2-(4-ethylpiperazin-1-yl)pyrimidin-4-yl)thio)-4H-1,2,4-triazol-4-amine (4f)] |
| > 500 | Cc1nc(N2CCN(c3ccccc3)CC2)nc(Sc2nnc(Sc3nc(N4CCN(c5ccccc5)CC4)nc(C)c3Br)n2N)c1Br [3,5-bis((5-bromo-6-methyl-2-(4-phenylpiperazin-1-yl)pyrimidin-4-yl)thio)-4H-1,2,4-triazol-4-amine (4e)] |
| 9 | Cc1nc(N2CCN(C)CC2)nc(Sc2nnc(Sc3nc(N4CCN(C)CC4)nc(C)c3Br)n2N)c1Br [3,5-bis((5-bromo-6-methyl-2-(4-methylpiperazin-1-yl)pyrimidin-4-yl)thio)-4H-1,2,4-triazol-4-amine (4d)] |
| > 500 | Cc1nc(N2CCCCC2)nc(Sc2nnc(Sc3nc(N4CCCCC4)nc(C)c3Br)n2N)c1Br [3,5-bis((5-bromo-6-methyl-2-(piperidin-1-yl)pyrimidin-4-yl)thio)-4H-1,2,4-triazol-4-amine (4b)] |
| > 500 | Cc1nc(N2CCOCC2)nc(Sc2nnc(Sc3nc(N4CCOCC4)nc(C)c3Br)n2N)c1Br [3,5-bis((5-bromo-6-methyl-2-morpholinopyrimidin-4-yl)thio)-4H-1,2,4-triazol-4-amine (4a)] |
| > 500 | Cc1nc(N2CCCC2)nc(Sc2nnc(Sc3nc(N4CCCC4)nc(C)c3Br)n2N)c1Br [3,5-bis((5-bromo-6-methyl-2-(pyrrolidin-1-yl)pyrimidin-4-yl)thio)-4H-1,2,4-triazol-4-amine (4g)] |
